Measured values as given in US8952034B2, “Fused heterocyclic compounds as ion channel modulators” (Gilead Sciences, Inc., priority 2009, dated 2015).

biological target: wild-type human cardiac sodium channel, hNav1.5 (Homo sapiens, UniProt Q14524); assay: Late INa screening assay (automated whole cell patch clamp, PatchXpress); assay type: cell-based; details: compound at 1 μM; HEK293 cells expressing hNav1.5; late INa generated with 10 μM Tefluthrin (or 50 nM ATX II); read-out: LateINa_1 uM (percent block of late INa)
Protocol: The late sodium current (Late INa) and peak sodium current (Peak INa) assays are performed on an automated electrophysiology platform, PatchXpress 7000A (MDS Analytical Technologies, Sunnyvale, Calif.), which uses the whole cell patch clamp technique to measure currents through the cell membrane of up to 16 cells at a time. The assay uses an HEK293 (human embryonic kidney) cell line heterologously expressing the wild-type human cardiac sodium channel, hNav1.5, purchased from Millipore (Billerica, Mass.). No beta subunits were coexpressed with the Na channel alpha subunit. Cells are maintained with standard tissue culture procedures and stable channel expression is maintained with 400 μg/ml Geneticin in the culture medium. […] Experiments are carried out at 24-27° C.
For both the Late INa and Peak INa assays, series resistance compensation is set to 50% and whole-cell compensation is performed automatically. […] Currents through open sodium channels are automatically recorded and stored in the DataXpress2 database (MDS Analytical Technologies, Sunnyvale, Calif.). Analysis is performed using DataXpress2 analysis software and data are compiled in Excel.
Compound stocks are routinely made in glass vials to 10 mM in dimethyl sulfoxide (DMSO). In some cases, when compounds are not soluble in DMSO, they are made in 100% ethanol. Stocks are sonicated as necessary. The extracellular solution for screening Late INa is composed of: 140 mM NaCl, 4 mM KCl, 1.8 mM CaCl2, 0.75 mM MgCl2, and 5 mM HEPES with pH adjusted to 7.4 using NaOH. The extracellular solution for screening Peak INa is composed of: 20 mM NaCl, 120 mM N-methyl-D glucamine, 4 mM KCl, 1.8 mM CaCl2, 0.75 mM MgCl2, and 5 mM HEPES with pH adjusted to 7.4 using HCl. The intracellular solution used to perfuse the inside of the cells for both the Late INa and Peak INa assays contains: 120 mM CsF, 20 mM CsCl, 5 mM EGTA, 5 mM HEPES and pH adjusted to 7.4 with CsOH. […] The 0Na extracellular solution used at the end of each experiment for the Late INa and Peak INa assays to measure baseline current contains: 140 mM N-methyl-D-glucamine; 4 mM KCl; 1.8 mM CaCl2; 0.75 mM MgCl2; 5 mM HEPES and pH was adjusted to 7.4 with HCl.
For the Late INa assay, sodium channels are activated every 10 seconds (0.1 Hz) by depolarizing the cell membrane to −20 mV for 250 milliseconds (ms) from a holding potential of −120 mV. In response to a −20 mV voltage step, typical Nav1.5 sodium currents activate rapidly to a peak negative current and then inactivate nearly completely within […].
All compounds are tested to determine their activity in blocking the late sodium current. Late INa current is generated by adding 10 μM Tefluthrin (pyrethroid) to the extracellular solution while recording Na currents For some experiments, 50 nM ATX II (sea anemone toxin), another late INa activator, was used to generate the late component. […] After establishing the whole cell recording configuration, late INa activators are added to each well 4 times over a 16-17 minute period so that the late component of the Na current reaches a stable value. […] Measurements are made at the end of exposure to the third compound addition and values are normalized to the current level when all Na^+ is removed from the extracellular solution after two additions of 0Na-ECF. Results are reported as percent block of late INa

Chain of wild-type human cardiac sodium channel, hNav1.5 (Q14524 whole entry): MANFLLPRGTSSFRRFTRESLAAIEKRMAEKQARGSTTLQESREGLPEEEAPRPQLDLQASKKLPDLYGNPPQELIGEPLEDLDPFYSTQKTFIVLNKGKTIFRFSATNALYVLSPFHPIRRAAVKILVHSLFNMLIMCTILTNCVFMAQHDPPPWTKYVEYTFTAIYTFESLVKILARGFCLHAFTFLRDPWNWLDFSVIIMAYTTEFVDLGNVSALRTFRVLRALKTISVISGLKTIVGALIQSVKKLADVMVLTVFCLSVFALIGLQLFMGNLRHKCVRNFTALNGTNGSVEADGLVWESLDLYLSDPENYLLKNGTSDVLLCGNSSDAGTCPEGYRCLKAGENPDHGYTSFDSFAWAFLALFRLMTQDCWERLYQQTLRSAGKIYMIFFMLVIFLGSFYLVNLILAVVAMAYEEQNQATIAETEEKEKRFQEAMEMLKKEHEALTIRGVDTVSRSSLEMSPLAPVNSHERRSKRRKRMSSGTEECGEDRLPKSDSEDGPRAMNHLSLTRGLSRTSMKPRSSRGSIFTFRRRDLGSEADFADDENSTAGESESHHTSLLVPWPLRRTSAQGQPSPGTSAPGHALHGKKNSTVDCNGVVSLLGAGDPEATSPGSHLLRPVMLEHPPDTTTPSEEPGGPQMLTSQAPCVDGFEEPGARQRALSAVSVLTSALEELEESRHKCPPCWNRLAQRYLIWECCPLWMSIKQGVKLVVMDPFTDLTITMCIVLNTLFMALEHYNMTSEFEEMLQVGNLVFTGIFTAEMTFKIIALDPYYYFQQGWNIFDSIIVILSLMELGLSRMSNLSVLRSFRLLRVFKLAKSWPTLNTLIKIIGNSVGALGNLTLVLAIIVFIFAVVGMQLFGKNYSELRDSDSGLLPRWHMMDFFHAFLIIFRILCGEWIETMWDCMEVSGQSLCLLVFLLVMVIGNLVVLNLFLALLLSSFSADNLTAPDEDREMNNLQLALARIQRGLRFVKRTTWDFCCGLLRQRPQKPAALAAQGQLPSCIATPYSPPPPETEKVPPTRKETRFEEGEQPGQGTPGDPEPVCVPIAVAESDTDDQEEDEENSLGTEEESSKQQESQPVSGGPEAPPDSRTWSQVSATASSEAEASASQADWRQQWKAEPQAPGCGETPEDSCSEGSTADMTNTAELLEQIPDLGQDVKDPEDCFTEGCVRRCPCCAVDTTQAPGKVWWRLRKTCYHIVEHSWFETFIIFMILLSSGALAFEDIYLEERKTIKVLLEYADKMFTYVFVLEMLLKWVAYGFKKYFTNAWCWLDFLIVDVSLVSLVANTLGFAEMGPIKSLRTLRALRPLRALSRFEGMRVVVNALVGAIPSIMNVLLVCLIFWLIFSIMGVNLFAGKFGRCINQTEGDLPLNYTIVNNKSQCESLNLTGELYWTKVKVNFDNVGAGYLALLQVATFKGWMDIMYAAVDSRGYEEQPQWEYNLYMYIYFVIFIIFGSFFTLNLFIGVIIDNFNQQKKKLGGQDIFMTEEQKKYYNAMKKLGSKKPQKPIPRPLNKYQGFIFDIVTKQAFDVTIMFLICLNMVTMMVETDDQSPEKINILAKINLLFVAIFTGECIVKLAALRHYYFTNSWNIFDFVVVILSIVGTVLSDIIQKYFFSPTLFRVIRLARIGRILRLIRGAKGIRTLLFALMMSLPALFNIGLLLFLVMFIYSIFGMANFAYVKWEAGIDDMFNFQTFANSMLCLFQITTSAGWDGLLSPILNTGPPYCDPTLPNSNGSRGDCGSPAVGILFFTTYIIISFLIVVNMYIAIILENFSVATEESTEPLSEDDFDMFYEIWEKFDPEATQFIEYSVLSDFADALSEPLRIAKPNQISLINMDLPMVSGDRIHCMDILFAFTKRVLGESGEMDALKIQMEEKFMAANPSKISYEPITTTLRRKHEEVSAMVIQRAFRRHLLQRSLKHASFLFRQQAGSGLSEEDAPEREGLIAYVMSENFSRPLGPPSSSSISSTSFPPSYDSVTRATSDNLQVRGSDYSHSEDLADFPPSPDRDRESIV

Point of comparison: N#CCOc1cc(OC(F)(F)F)ccc1-c1ccc2nnc(C(F)(F)F)n2c1 [BHN-181, {5-(trifluoromethoxy)-2-[3-(trifluoromethyl)[1,2,4]triazolo[4,3-a]pyridin-6-yl]phenoxy}acetonitrile], inhibition at 1 µM 18.7%. Against it:
- Cc1nccn1-c1ccccc1COC(F)(F)c1nnc2ccc(-c3ccc(OC(F)(F)F)cc3)cn12 [BHN-312, 3-(difluoro{[2-(2-methyl-1H-imidazol-1-yl)benzyl]oxy}methyl)-6-[4-(trifluoromethoxy)phenyl][1,2,4]triazolo[4,3-a]pyridine] — higher, 51.4%
- FC(F)(F)COc1ccc(-c2ccc3nnc(C(F)(F)F)n3c2)cn1 [BHN-92, 6-[6-(2,2,2-trifluoroethoxy)pyridin-3-yl]-3-(trifluoromethyl)[1,2,4]triazolo[4,3-a]pyridine] — higher, 63.5%
- COC(F)(F)c1nnc2ccc(-c3ccc(OC(F)(F)F)cc3)cn12 [BHN-140, 3-[difluoro(methoxy)methyl]-6-[4-(trifluoromethoxy)phenyl][1,2,4]triazolo[4,3-a]pyridine] — higher, 53.2%
- FC(F)(F)Oc1ccc(-c2ccc3nnc(C(F)(F)OCc4ccccc4-n4cncn4)n3c2)cc1 [BHN-311, 3-(difluoro{[2-(1H-1,2,4-triazol-1-yl)benzyl]oxy}methyl)-6-[4-(trifluoromethoxy)phenyl][1,2,4]triazolo[4,3-a]pyridine] — higher, 47.3%
- OC(c1nnc2ccc(-c3ccc(OC(F)(F)F)cc3)cn12)C(F)(F)F (centres unmarked) [BHN-155, 2,2,2-trifluoro-1-{6-[4-(trifluoromethoxy)phenyl][1,2,4]triazolo[4,3-a]pyridin-3-yl}ethanol] — lower, 16.2%
- FC(F)(F)Oc1ccc(-c2ccc3nnc(C(F)(F)OCc4ccccc4)n3c2)cc1 [BHN-148, 3-[(benzyloxy)(difluoro)methyl]-6-[4-(trifluoromethoxy)phenyl][1,2,4]triazolo[4,3-a]pyridine] — higher, 71.7%
- FC(F)(F)Oc1ccc(-c2ccc3nnc(C(F)(F)F)n3c2)cc1Cl [BHN-164, 6-[3-chloro-4-(trifluoromethoxy)phenyl]-3-(trifluoromethyl)[1,2,4]triazolo[4,3-a]pyridine] — higher, 50.7%
- NC(=O)c1nnc2ccc(-c3ccc(OC(F)(F)F)cc3)cn12 [BHN-265, 6-[4-(trifluoromethoxy)phenyl][1,2,4]triazolo[4,3-a]pyridine-3-carboxamide] — lower, 15.3%
- CC(=O)c1ccc(-c2ccc3nnc(C(F)(F)F)n3c2)cc1 [BHN-154, 1-(4-(3-(trifluoromethyl)-[1,2,4]triazolo[4,3-a]pyridin-6-yl)phenyl)ethanone] — higher, 19.2%
- COCC(F)(F)c1nnc2ccc(-c3ccc(OC(F)(F)F)cc3)cn12 [BHN-74, 3-(1,1-difluoro-2-methoxyethyl)-6-[4-(trifluoromethoxy)phenyl][1,2,4]triazolo[4,3-a]pyridine] — higher, 46.9%
- Cn1c(COC(F)(F)c2nnc3ccc(-c4ccc(OC(F)(F)F)cc4)cn23)nc2ccccc21 [BHN-296, 3-{difluoro[(1-methyl-1H-benzimidazol-2-yl)methoxy]methyl}-6-[4-(trifluoromethoxy)phenyl][1,2,4]triazolo[4,3-a]pyridine] — higher, 40.1%
- FC(F)(F)Oc1ccc(-c2ccc3nnc(C(F)(F)F)n3c2)c2cccnc12 [BHN-108, 8-(trifluoromethoxy)-5-[3-(trifluoromethyl)[1,2,4]triazolo[4,3-a]pyridin-6-yl]quinoline] — higher, 45.7%
- FC(F)(F)Oc1ccc(-c2ccc3nnc(C(F)(F)OCc4cnn(-c5ccccc5)c4)n3c2)cc1 [BHN-287, 3-{difluoro[(1-phenyl-1H-pyrazol-4-yl)methoxy]methyl}-6-[4-(trifluoromethoxy)phenyl][1,2,4]triazolo[4,3-a]pyridine] — higher, 47.1%
- OCc1nc(C(F)(F)F)n2cc(-c3ccc(OC(F)(F)F)cc3)ccc12 [BHN-125, {6-[4-(trifluoromethoxy)phenyl]-3-(trifluoromethyl)imidazo[1,5-a]pyridin-1-yl}methanol] — higher, 33.9%
- FC(F)(F)Oc1ccc(-c2ccc3nnc(COC(F)(F)c4cccnc4)n3c2)cc1 [BHN-257, 3-{[difluoro(pyridin-3-yl)methoxy]methyl}-6-[4-(trifluoromethoxy)phenyl][1,2,4]triazolo[4,3-a]pyridine] — higher, 46.2%
- CCC(O)(CC)C(F)(F)c1nnc2ccc(-c3ccc(OC(F)(F)F)cc3)cn12 [BHN-197, 3-(difluoro{6-[4-(trifluoromethoxy)phenyl][1,2,4]triazolo[4,3-a]pyridin-3-yl}methyl)pentan-3-ol] — higher, 25.4%
- Clc1ccc(Oc2ccc(-c3ccc4nnnn4n3)cc2)cc1 [BHN-270, 6-[4-(4-chlorophenoxy)phenyl]tetrazolo[1,5-b]pyridazine] — higher, 21.7%
- N#Cc1cc(Cl)ccc1Nc1ccc(-c2ccc3nnc(C(F)(F)F)n3c2)cc1 [BHN-276, 5-chloro-2-({4-[3-(trifluoromethyl)[1,2,4]triazolo[4,3-a]pyridin-6-yl]phenyl}amino)benzonitrile] — lower, 16.2%
- FC(F)(F)Oc1ccc(-c2ccc3nnc(C(F)(F)OCc4noc(C5CC5)n4)n3c2)cc1 [BHN-206, 3-{[(5-cyclopropyl-1,2,4-oxadiazol-3-yl)methoxy](difluoro)methyl}-6-[4-(trifluoromethoxy)phenyl][1,2,4]triazolo[4,3-a]pyridine] — higher, 44.7%
- FC(F)(F)COc1ccc(-c2ccc3nnc(C(F)(F)F)n3n2)cn1 [BHN-221, 6-[6-(2,2,2-trifluoroethoxy)pyridin-3-yl]-3-(trifluoromethyl)[1,2,4]triazolo[4,3-b]pyridazine] — higher, 55%
- FC(F)(F)c1nnc2ccc(-c3nnc(C4CC4)s3)cn12 [BHN-96, 6-(5-cyclopropyl-1,3,4-thiadiazol-2-yl)-3-(trifluoromethyl)[1,2,4]triazolo[4,3-a]pyridine] — higher, 20.3%
- FC(F)(F)Oc1ccc(-c2ccc3nnc(C(F)(F)OCc4ccccc4-n4cccn4)n3c2)cc1 [BHN-328, 3-(difluoro{[2-(1H-pyrazol-1-yl)benzyl]oxy}methyl)-6-[4-(trifluoromethoxy)phenyl][1,2,4]triazolo[4,3-a]pyridine] — higher, 70.9%

same assay, conditions: compound at 10 μM; HEK293 cells expressing hNav1.5; late INa generated with 10 μM Tefluthrin (or 50 nM ATX II); read-out: LateINa_10 uM (percent block of late INa)

Point of comparison: Cn1ncc2cc(-c3ccc4nnc(C(F)(F)F)n4c3)ccc21 [BHN-59, 6-(1-methyl-1H-indazol-5-yl)-3-(trifluoromethyl)[1,2,4]triazolo[4,3-a]pyridine], inhibition at 10 µM 39.8%. Against it:
- FC(F)(F)COc1ccc(-c2ccc3nnc(C(F)(F)F)n3c2)cn1 [BHN-92, 6-[6-(2,2,2-trifluoroethoxy)pyridin-3-yl]-3-(trifluoromethyl)[1,2,4]triazolo[4,3-a]pyridine] — higher, 76.3%
- Nc1cc(-c2ccc(OC(F)(F)F)cc2)cn2c(-c3ccccc3)nnc12 [BHN-52, 3-phenyl-6-[4-(trifluoromethoxy)phenyl][1,2,4]triazolo[4,3-a]pyridin-8-amine] — higher, 44.9%
- COCC(F)(F)c1nnc2ccc(-c3ccc(OC(F)(F)F)cc3)cn12 [BHN-74, 3-(1,1-difluoro-2-methoxyethyl)-6-[4-(trifluoromethoxy)phenyl][1,2,4]triazolo[4,3-a]pyridine] — higher, 67%
- Cn1cc(-c2nnc3ccc(-c4ccc(Oc5ccccc5)cc4)nn23)cn1 [BHN-43, 3-(1-methyl-1H-pyrazol-4-yl)-6-(4-phenoxyphenyl)[1,2,4]triazolo[4,3-b]pyridazine] — lower, 25.2%
- N#Cc1cccc(-c2nnc3ccc(-c4ccc(F)cc4)nn23)c1 [BHN-51, 3-[6-(4-fluorophenyl)[1,2,4]triazolo[4,3-b]pyridazin-3-yl]benzonitrile] — higher, 40.5%
- FC(F)(F)Oc1ccc(-c2ccc3nnc(C(F)(F)F)n3c2)c2cccnc12 [BHN-108, 8-(trifluoromethoxy)-5-[3-(trifluoromethyl)[1,2,4]triazolo[4,3-a]pyridin-6-yl]quinoline] — higher, 63.1%
- COc1ccc(-c2ccc3nnc(-c4cccc(C#N)c4)n3n2)cc1 [BHN-45, 3-[6-(4-methoxyphenyl)[1,2,4]triazolo[4,3-b]pyridazin-3-yl]benzonitrile] — lower, 36.3%
- CC(C)(C)c1nnc2ccc(-c3ccc(Oc4ccccc4)cc3)nn12 [BHN-35, 3-tert-butyl-6-(4-phenoxyphenyl)[1,2,4]triazolo[4,3-b]pyridazine] — higher, 68.6%
